US12371464B2, “Polypeptides and uses thereof” (MEDIMMUNE LIMITED, priority 2020, dated 2025)
Numbered stars: 1 amine (or outer) side, 2 acyl side, 3 side chain; on linkers, the order of the positions; unused ones are H or OH. Bridge positions count the residues as written; N and C are the ends. Square brackets hold non-standard residues; d marks the D form. Side chains are listed from the residue outwards. Peptide text beside a SMILES is read from it. * marks the point of attachment. C20 diacid = O=C(O)CCCCCCCCCCCCCCCCCCC(=O)*; C18 diacid = O=C(O)CCCCCCCCCCCCCCCCC(=O)*; γGlu = O=C(O)[C@H](CCC(=O)[*:2])N[*:1]; Dab = NCC[C@H](N)C(=O)O; AEEA = NCCOCCOCC(=O)O; Aib = CC(C)(N)C(=O)O

Legend:
lean rats = experiment: Rat acute food intake study; type: in vivo, Sprague Dawley rats; details: 20 nmol/kg subcutaneously
Procedure: Male Sprague Dawley rats were obtained from Taconic Denmark, ApS at approximately 7 weeks of age. . . . Rats were implanted with a microchip for identification, housed 4/cage with enrichment, free access to food and water, and allowed one week acclimatisation while non-invasive characterization was performed. Rats were on a 12:12 light:dark cycle that switches at 1 pm:1 am. Food intake was monitored via the HM2 system (Lafayette Instrument) that allows for monitoring in a home cage. As each rat enters an access tunnel to feed, an IR beam is broken, and the implanted microchip is read. Resulting changes to food weight is then assigned to the specific animal. Social order has shown no impact to overall feeding patterns and amounts.
Rats were sorted into groups based on Day-1 body weight and 24-hour accumulated food intake (n=7 per group). On Day 0 rats were weighed, then fasted for 6 hours. Thirty (30) minutes prior to the reintroduction of food, rats were dosed subcutaneously (5 ml/kg) with 20 nmol/kg of test compound or 60 nmol/kg peptide 1 (pramlintide) diluted in an appropriate vehicle, after which food was returned, and lights went out. Automated food intake was monitored for the following 3 days, and rats were weighed once per day.
Food intake per rat was batched into 1-hour intervals and integrated into Gubra's GubraView data management system. Discrete food intake data was exported into MS Excel from which cumulative food intake data was generated. Cumulative food intake data was then transposed into GraphPad Prism (v8.0.1) for analysis of dark period feeding

[1] = Thioflavin T fibrillation assay; type: physicochemical; details: for Time taken to detect increase in fluorescence intensity: 1 mg/mL in 25 mM sodium acetate buffer pH 4.0, 37° C., 6 days, orbital shaking, >144 h = no increase; for fibril-forming tendency on conjugating pramlintide to a lipid: as seen in Table 7
Outline: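 Peptides at 1 mg/mL in 25 mM sodium acetate pH 4.0 were mixed with ThT (0.25 mM stock) and held 6 days at 37 °C with intermittent orbital shaking at 500–750 rpm. Fluorescence (ex 444/em 480 nm) was read every 30 min, with buffer baseline correction and 5 replicates. Value: mean time to a detectable fluorescence increase.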

For CC[C@H](C)[C@H](NC(=O)[C@@H]1CCCN1C(=O)CNC(=O)[C@H](Cc1ccccc1)NC(=O)[C@H](CC(N)=O)NC(=O)C(C)(C)NC(=O)[C@H](CO)NC(=O)[C@H](CO)NC(=O)[C@H](Cc1c[nH]cn1)NC(=O)[C@@H](NC(=O)[C@H](CC(C)C)NC(=O)[C@H](Cc1ccccc1)NC(=O)[C@H](CC(N)=O)NC(=O)[C@H](C)NC(=O)[C@H](CC(C)C)NC(=O)[C@H](CCCNC(=N)N)NC(=O)[C@H](CCC(N)=O)NC(=O)[C@@H](NC(=O)[C@H](C)NC(=O)[C@@H]1CSSC[C@H](NC(=O)[C@H](CCCCN)NC(=O)[C@@H](N)CCCCNC(=O)CC[C@H](NC(=O)CCCCCCCCCCCCCCCCC(=O)O)C(=O)O)C(=O)N[C@@H](CC(N)=O)C(=O)N[C@@H]([C@@H](C)O)C(=O)N[C@@H](C)C(=O)N[C@@H]([C@@H](C)O)C(=O)N1)[C@@H](C)O)C(C)C)C(=O)N[C@@H](CC(C)C)C(=O)N1CCC[C@H]1C(=O)N1CCC[C@H]1C(=O)N[C@H](C(=O)N[C@@H](CC(N)=O)C(=O)N[C@H](C(=O)NCC(=O)N[C@@H](CO)C(=O)N[C@@H](CC(N)=O)C(=O)N[C@H](C(=O)N[C@@H](Cc1ccc(O)cc1)C(N)=O)[C@@H](C)O)C(C)C)[C@@H](C)O [Peptide 35, K(γE-C18diacid)K[CNTATC]ATQRLANFLVHSS(Aib)NFGPILPPTNVGSNTY-amide] (H-K([γGlu-C18 diacid])KCNTATCATQRLANFLVHSS[Aib]NFGPILPPTNVGSNTY-NH2; disulfide 3-8; N-terminus assumed), the “Cummulative food intake (% vehicle treated intake) At 48 h” value (lean rats; at 48 h) was 72 % vehicle treated intake.
With CC[C@H](C)[C@H](NC(=O)[C@@H]1CCCN1C(=O)CNC(=O)[C@H](Cc1ccccc1)NC(=O)[C@H](CC(N)=O)NC(=O)C(C)(C)NC(=O)[C@H](CO)NC(=O)[C@H](CO)NC(=O)[C@H](Cc1c[nH]cn1)NC(=O)[C@@H](NC(=O)[C@H](CC(C)C)NC(=O)[C@H](Cc1ccccc1)NC(=O)[C@H](CCC(=O)O)NC(=O)[C@H](C)NC(=O)[C@H](CC(C)C)NC(=O)[C@H](CCCNC(=N)N)NC(=O)[C@H](CCC(N)=O)NC(=O)[C@@H](NC(=O)[C@H](C)NC(=O)[C@@H]1CSSC[C@H](NC(=O)[C@H](CCCCN)NC(=O)[C@@H](N)CCCCNC(=O)CC[C@H](NC(=O)CCCCCCCCCCCCCCCCC(=O)O)C(=O)O)C(=O)N[C@@H](CC(N)=O)C(=O)N[C@@H]([C@@H](C)O)C(=O)N[C@@H](C)C(=O)N[C@@H]([C@@H](C)O)C(=O)N1)[C@@H](C)O)C(C)C)C(=O)N[C@@H](CC(C)C)C(=O)N1CCC[C@H]1C(=O)N1CCC[C@H]1C(=O)N[C@H](C(=O)N[C@@H](CC(N)=O)C(=O)N[C@H](C(=O)NCC(=O)N[C@@H](CO)C(=O)N[C@@H](CC(N)=O)C(=O)N[C@H](C(=O)N[C@@H](Cc1ccc(O)cc1)C(N)=O)[C@@H](C)O)C(C)C)[C@@H](C)O [Peptide 38, K(γE-C18diacid)K[CNTATC]ATQRLAEFLVHSS(Aib)NFGPILPPTNVGSNTY-amide] (H-K([γGlu-C18 diacid])KCNTATCATQRLAEFLVHSS[Aib]NFGPILPPTNVGSNTY-NH2; disulfide 3-8; N-terminus assumed) the “Cummulative food intake (% vehicle treated intake) At 12 h” value (lean rats; at 12 h) was 6.9 % vehicle treated intake and the “Cummulative food intake (% vehicle treated intake) At 24 h” value (lean rats; at 24 h) was 5.5 % vehicle treated intake.
In the case of CC[C@H](C)[C@H](NC(=O)[C@@H]1CCCN1C(=O)CNC(=O)[C@H](Cc1ccccc1)NC(=O)[C@H](CC(N)=O)NC(=O)[C@H](CC(N)=O)NC(=O)[C@H](CO)NC(=O)[C@H](CO)NC(=O)[C@H](Cc1c[nH]cn1)NC(=O)[C@@H](NC(=O)[C@H](CC(C)C)NC(=O)[C@H](Cc1ccccc1)NC(=O)[C@H](CC(N)=O)NC(=O)[C@H](C)NC(=O)[C@H](CC(C)C)NC(=O)[C@H](CCCNC(=N)N)NC(=O)[C@H](CCC(N)=O)NC(=O)[C@@H](NC(=O)[C@H](C)NC(=O)[C@@H]1CSSC[C@H](NC(=O)[C@@H](N)CCCCNC(=O)CC[C@H](NC(=O)CCCCCCCCCCCCCCCCC(=O)O)C(=O)O)C(=O)N[C@@H](CC(N)=O)C(=O)N[C@@H]([C@@H](C)O)C(=O)N[C@@H](C)C(=O)N[C@@H]([C@@H](C)O)C(=O)N1)[C@@H](C)O)C(C)C)C(=O)N[C@@H](CC(C)C)C(=O)N1CCC[C@@H]1C(=O)N1CCC[C@H]1C(=O)N[C@H](C(=O)N[C@@H](CC(N)=O)C(=O)N[C@H](C(=O)NCC(=O)N[C@@H](CO)C(=O)N[C@@H](CC(N)=O)C(=O)N[C@H](C(=O)N[C@@H](Cc1ccc(O)cc1)C(N)=O)[C@@H](C)O)C(C)C)[C@@H](C)O [Peptide 104] (H-K([γGlu-C18 diacid])CNTATCATQRLANFLVHSSNNFGPIL[dP]PTNVGSNTY-NH2; disulfide 2-7; N-terminus assumed), the “Time taken to detect increase in fluorescence intensity” value (“Time taken to detect increase” below) [1] is reported as less than 5 h.
In the case of CC[C@H](C)[C@H](NC(=O)[C@@H]1CCCN1C(=O)CNC(=O)[C@H](Cc1ccccc1)NC(=O)[C@H](CC(N)=O)NC(=O)[C@H](CC(N)=O)NC(=O)[C@H](CO)NC(=O)[C@H](CO)NC(=O)[C@H](Cc1c[nH]cn1)NC(=O)[C@@H](NC(=O)[C@H](CC(C)C)NC(=O)[C@H](Cc1ccccc1)NC(=O)[C@H](CC(N)=O)NC(=O)[C@H](C)NC(=O)[C@H](CC(C)C)NC(=O)[C@H](CCCNC(=N)N)NC(=O)[C@H](CCC(N)=O)NC(=O)[C@@H](NC(=O)[C@H](C)NC(=O)[C@@H]1CSSC[C@H](NC(=O)[C@H](CCCCN)NC(=O)CC[C@H](NC(=O)CCCCCCCCCCCCCCCCCCC(=O)O)C(=O)O)C(=O)N[C@@H](CC(N)=O)C(=O)N[C@@H]([C@@H](C)O)C(=O)N[C@@H](C)C(=O)N[C@@H]([C@@H](C)O)C(=O)N1)[C@@H](C)O)C(C)C)C(=O)N[C@@H](CC(C)C)C(=O)N1CCC[C@H]1C(=O)N1CCC[C@H]1C(=O)N[C@H](C(=O)N[C@@H](CC(N)=O)C(=O)N[C@H](C(=O)NCC(=O)N[C@@H](CO)C(=O)N[C@@H](CC(N)=O)C(=O)N[C@H](C(=O)N[C@@H](Cc1ccc(O)cc1)C(N)=O)[C@@H](C)O)C(C)C)[C@@H](C)O [Peptide 112] ({C20 diacid-γGlu}-KCNTATCATQRLANFLVHSSNNFGPILPPTNVGSNTY-NH2; disulfide 2-7), the “Time taken to detect increase” value [1] is reported as less than 5 h and the “fibril-forming tendency on conjugating pramlintide to a lipid” value [1] is reported as “increases the fibril-forming tendency”.
With CC[C@H](C)[C@H](NC(=O)[C@@H]1CCCN1C(=O)CNC(=O)[C@H](Cc1ccccc1)NC(=O)[C@H](CC(N)=O)NC(=O)[C@H](CC(N)=O)NC(=O)[C@H](CO)NC(=O)[C@H](CO)NC(=O)[C@H](Cc1c[nH]cn1)NC(=O)[C@@H](NC(=O)[C@H](CC(C)C)NC(=O)[C@H](Cc1ccccc1)NC(=O)[C@H](CC(N)=O)NC(=O)[C@H](C)NC(=O)[C@H](CC(C)C)NC(=O)[C@H](CCCNC(=N)N)NC(=O)[C@H](CCC(N)=O)NC(=O)[C@@H](NC(=O)[C@H](C)NC(=O)[C@@H]1CSSC[C@H](NC(=O)[C@H](CCCCN)NC(=O)COCCOCCNC(=O)COCCOCCNC(=O)CC[C@H](NC(=O)CCCCCCCCCCCCCCCCCCC(=O)O)C(=O)O)C(=O)N[C@@H](CC(N)=O)C(=O)N[C@@H]([C@@H](C)O)C(=O)N[C@@H](C)C(=O)N[C@@H]([C@@H](C)O)C(=O)N1)[C@@H](C)O)C(C)C)C(=O)N[C@@H](CC(C)C)C(=O)N1CCC[C@H]1C(=O)N1CCC[C@H]1C(=O)N[C@H](C(=O)N[C@@H](CC(N)=O)C(=O)N[C@H](C(=O)NCC(=O)N[C@@H](CO)C(=O)N[C@@H](CC(N)=O)C(=O)N[C@H](C(=O)N[C@@H](Cc1ccc(O)cc1)C(N)=O)[C@@H](C)O)C(C)C)[C@@H](C)O [Peptide 113] ({C20 diacid-γGlu-AEEA-AEEA}-KCNTATCATQRLANFLVHSSNNFGPILPPTNVGSNTY-NH2; disulfide 2-7) the “Time taken to detect increase” value [1] was less than 5 h and the “fibril-forming tendency on conjugating pramlintide to a lipid” value [1] was “increases the fibril-forming tendency”.
In the case of CC[C@H](C)[C@H](NC(=O)[C@@H]1CCCN1C(=O)CNC(=O)[C@H](Cc1ccccc1)NC(=O)[C@H](CC(N)=O)NC(=O)[C@H](CC(N)=O)NC(=O)[C@H](CO)NC(=O)[C@H](CO)NC(=O)[C@H](Cc1c[nH]cn1)NC(=O)C(C)(C)NC(=O)[C@H](CC(C)C)NC(=O)[C@H](Cc1ccccc1)NC(=O)[C@H](CCN)NC(=O)[C@H](C)NC(=O)[C@H](CC(C)C)NC(=O)[C@H](CCCNC(=N)N)NC(=O)[C@H](CCC(N)=O)NC(=O)[C@@H](NC(=O)[C@H](C)NC(=O)[C@@H]1CSSC[C@H](NC(=O)[C@H](CCCCN)NC(=O)[C@@H](N)CCCCNC(=O)CC[C@H](NC(=O)CCCCCCCCCCCCCCCCC(=O)O)C(=O)O)C(=O)N[C@@H](CC(N)=O)C(=O)N[C@@H]([C@@H](C)O)C(=O)N[C@@H](C)C(=O)N[C@@H]([C@@H](C)O)C(=O)N1)[C@@H](C)O)C(=O)N[C@@H](CC(C)C)C(=O)N1CCC[C@H]1C(=O)N1CCC[C@H]1C(=O)N[C@H](C(=O)N[C@@H](CCC(=O)O)C(=O)N[C@H](C(=O)NCC(=O)N[C@@H](CO)C(=O)N[C@@H](CC(N)=O)C(=O)N[C@H](C(=O)N[C@@H](Cc1ccc(O)cc1)C(N)=O)[C@@H](C)O)C(C)C)[C@@H](C)O [Peptide 156] (H-K([γGlu-C18 diacid])KCNTATCATQRLA[Dab]FL[Aib]HSSNNFGPILPPTEVGSNTY-NH2; disulfide 3-8; N-terminus assumed), the “Time taken to detect increase” value [1] is reported as greater than 144 h.
